In publication PMC12455397 (Angewandte Chemie (International Ed. in English), 2025):
Values belong to the molecule of their own block, whether it stands above or below them.

How the values were obtained:
[1] = system: Nrf2 KO THP1 cells differentiated into macrophages; assay: RNA sequencing transcriptome analysis, Nrf2 KO THP-1 macrophages; assay type: cell-based; settings: 12 h, CDDO-Me 0.1 µM, DMF, 24, 28 10 µM, KI-696 1 µM
[2] = system: differentiated THP1 macrophages (WT)
human Keap1 Kelch = human Keap1 Kelch (Homo sapiens, UniProt Q14145); assay: Fluorescence polarization (FP) competition assay with Cy5-Nrf2 peptide probe; settings: for Ki: ≥3 individual measurements; for ligand efficiency (LE): from FP Ki; for fold improvement in binding affinity (FP) over parent analogue: 7 vs 4, 12 vs 7, 13 vs 12
Chain of human Keap1 Kelch (Q14145 321-609): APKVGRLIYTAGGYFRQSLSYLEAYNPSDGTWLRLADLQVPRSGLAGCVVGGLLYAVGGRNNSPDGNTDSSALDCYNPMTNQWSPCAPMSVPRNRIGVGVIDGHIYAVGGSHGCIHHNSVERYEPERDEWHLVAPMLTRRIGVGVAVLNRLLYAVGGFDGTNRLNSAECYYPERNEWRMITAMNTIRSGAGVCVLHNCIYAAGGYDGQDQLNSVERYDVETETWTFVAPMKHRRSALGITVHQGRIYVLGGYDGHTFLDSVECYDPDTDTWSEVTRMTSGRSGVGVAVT

[3] = WT, 12 h, CDDO-Me 0.1 µM, SFN, DMF, 24, 28 10 µM, KI-696 1 µM
[4] = FP (Ki/nM), Table S2, mean ± SEM, NA: not active (measured up to 4 mM)
[5] = Ki (FP), mean, text and figures

Compound: COC(=O)[C@]12CCC(C)(C)C[C@H]1[C@H]1C(=O)C=C3[C@@]4(C)C=C(C#N)C(=O)C(C)(C)[C@@H]4CC[C@@]3(C)[C@]1(C)CC2 [CDDO-Me, bardoxolone methyl]
number of up- or downregulated genes in Nrf2 KO cells [1]: 2149 genes
AKR1B10 FC ([2]; Table S3, THP-1, 12 h): 61,69 fold
CASP1 FC ([2]; Table S3, THP-1, 12 h): 1,31 fold
COL1A1 FC ([2]; Table S3, THP-1, 12 h): 3,46 fold
COL4A1 FC ([2]; Table S3, THP-1, 12 h): 0,30 fold
COL4A2 FC ([2]; Table S3, THP-1, 12 h): 0,49 fold
GPX1 FC ([2]; Table S3, THP-1, 12 h): 0,44 fold
GPX4 FC ([2]; Table S3, THP-1, 12 h): 0,91 fold
IFNAR1 FC ([2]; Table S3, THP-1, 12 h): 0,82 fold
IFNAR2 FC ([2]; Table S3, THP-1, 12 h): 0,52 fold
IFNGR1 FC ([2]; Table S3, THP-1, 12 h): 0,81 fold
IFNGR2 FC ([2]; Table S3, THP-1, 12 h): 0,41 fold
IL1B FC ([2]; Table S3, THP-1, 12 h): 0,13 fold
IRF3 FC ([2]; Table S3, THP-1, 12 h): 0,95 fold
LAMB1 FC ([2]; Table S3, THP-1, 12 h): 3,83 fold
LAMB4 FC ([2]; Table S3, THP-1, 12 h): 5,61 fold
MMP8 FC ([2]; Table S3, THP-1, 12 h): 0,21 fold
MMP9 FC ([2]; Table S3, THP-1, 12 h): 0,51 fold
MMP12 FC ([2]; Table S3, THP-1, 12 h): 0,25 fold
NLRP3 FC ([2]; Table S3, THP-1, 12 h): 0,43 fold
NOD2 FC ([2]; Table S3, THP-1, 12 h): 0,78 fold
NOXA1 FC ([2]; Table S3, THP-1, 12 h): 0,67 fold
SOCS1 FC ([2]; Table S3, THP-1, 12 h): 0,37 fold
SOCS3 FC ([2]; Table S3, THP-1, 12 h): 1,14 fold
SOD1 FC ([2]; Table S3, THP-1, 12 h): 2,71 fold
SOD2 FC ([2]; Table S3, THP-1, 12 h): 0,36 fold
STAT1 FC ([2]; Table S3, THP-1, 12 h): 1,02 fold
TBK1 FC ([2]; Table S3, THP-1, 12 h): 1,06 fold
TLR4 FC ([2]; Table S3, THP-1, 12 h): 0,26 fold
TNFRSF1B FC ([2]; Table S3, THP-1, 12 h): 0,27 fold
TRAP1 FC ([2]; Table S3, THP-1, 12 h): 0,64 fold
cGAS FC ([2]; Table S3, THP-1, 12 h): 1,19 fold
number of upregulated genes not shared by the other groups ([2]; WT, 12 h, CDDO-Me 0.1 µM, DMF 10 µM): > 500 genes
Average FC of upregulated Nrf2-dependent genes [2, 3]: 5.0 fold
number of upregulated genes (FC >2.0, p-adj <0.05) [2, 3]: 1091 genes

Compound: O=C(O)CCc1cccc(OCC(=O)NC2CCCCC2)c1 [Compound 2]
activity in FP competition assay (human Keap1 Kelch): inactive

Compound: O=C(COc1cccc(N2CCC(C(=O)O)CC2)c1)NC1CCCCC1 [Compound 3]
Ki (human Keap1 Kelch; [4]): 162000 ± 22000 nM
Ki (human Keap1 Kelch; Ki (FP), mean): 160000 nM
ligand efficiency (LE) (human Keap1 Kelch): 0.20

Compound: O=C(O)CCc1ccc2ccc(OCC(=O)NC3CCCCC3)cc2c1 [Compound 4]
Ki (human Keap1 Kelch; [4]): 15500 ± 1300 nM
Ki (human Keap1 Kelch; Ki (FP), mean): 16000 nM
ligand efficiency (LE) (human Keap1 Kelch): 0.25

Compound: O=C(O)CCc1ccc2ccc(OCC(=O)NC3CCOCC3)cc2c1 [Compound 5]
Ki (human Keap1 Kelch; [4]): 38300 ± 2900 nM
Ki (human Keap1 Kelch; Ki (FP), mean): 38000 nM

Compound: O=C(O)CCc1ccc2ccc(OCC(=O)NN3CCOCC3)cc2c1 [Compound 6]
Ki (human Keap1 Kelch; [4]): 268000 ± 29000 nM
Ki (human Keap1 Kelch; Ki (FP), mean): 270000 nM

Compound: O=C(O)CCc1ccc2ccc(OCC(=O)NC3CCCCCC3)cc2c1 [Compound 7]
fold improvement in binding affinity (FP) over parent analogue (human Keap1 Kelch): 2 fold
Ki (human Keap1 Kelch; [4]): 6560 ± 580 nM
Ki (human Keap1 Kelch; Ki (FP), mean): 6600 nM
ligand efficiency (LE) (human Keap1 Kelch): 0.26

Compound: O=C(O)CCc1ccc2ccc(OCC(=O)Nc3ccccc3)cc2c1 [Compound 8]
Ki (human Keap1 Kelch; [4]): 10200 ± 2400 nM
Ki (human Keap1 Kelch; Ki (FP), mean): 10000 nM

Compound: COc1ccc(NC(=O)COc2ccc3ccc(CCC(=O)O)cc3c2)cc1 [Compound 9]
Ki (human Keap1 Kelch; [4]): 69600 ± 9400 nM
Ki (human Keap1 Kelch; Ki (FP), mean): 70000 nM

Compound: Cc1cc(C)c(NC(=O)COc2ccc3ccc(CCC(=O)O)cc3c2)c(C)c1 [Compound 10]
Ki (human Keap1 Kelch; [4]): 21300 ± 710 nM
Ki (human Keap1 Kelch; Ki (FP), mean): 21000 nM

Compound: Cc1cc(C)c(C)c(NC(=O)COc2ccc3ccc(CCC(=O)O)cc3c2)c1C [Compound 11]
Ki (human Keap1 Kelch; [4]): 196000 ± 24000 nM
Ki (human Keap1 Kelch; Ki (FP), mean): 200000 nM

Compound: O=C(O)CC(c1ccc2c(c1)OCCO2)c1ccc2ccc(OCC(=O)NC3CCCCCC3)cc2c1 (centres unmarked) [Compound 23]
Ki (human Keap1 Kelch; [5]): 15 nM

Second part, the molecule after the results:

fold improvement in binding affinity (FP) over parent analogue (human Keap1 Kelch): 6 fold
Ki (human Keap1 Kelch; [4]): 1060 ± 99 nM
Ki (human Keap1 Kelch; Ki (FP), mean): 1100 nM
ligand efficiency (LE) (human Keap1 Kelch): 0.25
Compound: O=C(O)CC(c1ccccc1)c1ccc2ccc(OCC(=O)NC3CCCCCC3)cc2c1 (centres unmarked) [Compound 12]

fold improvement in binding affinity (FP) over parent analogue (human Keap1 Kelch): 34 fold
Ki (human Keap1 Kelch; [4]): 31.6 ± 2.6 nM
Ki (human Keap1 Kelch; [5]): 32 nM
ligand efficiency (LE) (human Keap1 Kelch): 0.29
Compound: COc1ccc(C(CC(=O)O)c2ccc3ccc(OCC(=O)NC4CCCCCC4)cc3c2)cc1 (centres unmarked) [Compound 13]

Ki (human Keap1 Kelch; [4]): 284 ± 31 nM
Ki (human Keap1 Kelch; [5]): 280 nM
Compound: COc1cccc(C(CC(=O)O)c2ccc3ccc(OCC(=O)NC4CCCCCC4)cc3c2)c1 (centres unmarked) [Compound 14]

Ki (human Keap1 Kelch; [4]): 294 ± 25 nM
Ki (human Keap1 Kelch; [5]): 290 nM
Compound: O=C(O)CC(c1ccc(Cl)cc1)c1ccc2ccc(OCC(=O)NC3CCCCCC3)cc2c1 (centres unmarked) [Compound 15]

Ki (human Keap1 Kelch; [4]): 53.9 ± 6.1 nM
Ki (human Keap1 Kelch; [5]): 54 nM
Compound: O=C(O)CC(c1cccc(Cl)c1)c1ccc2ccc(OCC(=O)NC3CCCCCC3)cc2c1 (centres unmarked) [Compound 16]

Ki (human Keap1 Kelch; [4]): 23.6 ± 2.2 nM
Ki (human Keap1 Kelch; [5]): 24 nM
Compound: COc1ccc(C(CC(=O)O)c2ccc3ccc(OCC(=O)NC4CCCCCC4)cc3c2)c(C)c1 (centres unmarked) [Compound 17]

Ki (human Keap1 Kelch; [4]): 59.5 ± 8.4 nM
Ki (human Keap1 Kelch; [5]): 60 nM
Compound: Cc1c(Cl)cccc1C(CC(=O)O)c1ccc2ccc(OCC(=O)NC3CCCCCC3)cc2c1 (centres unmarked) [Compound 18]

Ki (human Keap1 Kelch; [4]): 23.2 ± 1.3 nM
Ki (human Keap1 Kelch; [5]): 23 nM
ligand efficiency (LE) (human Keap1 Kelch): 0.29
Compound: O=C(O)CC(c1ccc2c(c1)OCO2)c1ccc2ccc(OCC(=O)NC3CCCCCC3)cc2c1 (centres unmarked) [Compound 19]

Ki (human Keap1 Kelch; [4]): 35.5 ± 3.4 nM
Ki (human Keap1 Kelch; [5]): 36 nM
Compound: O=C(O)CC(c1ccc2c(c1)CCO2)c1ccc2ccc(OCC(=O)NC3CCCCCC3)cc2c1 (centres unmarked) [Compound 20]

Ki (human Keap1 Kelch; [4]): 38.3 ± 1.6 nM
Ki (human Keap1 Kelch; [5]): 38 nM
Compound: O=C(O)CC(c1ccc2ccc(OCC(=O)NC3CCCCCC3)cc2c1)c1ccc2occc2c1 (centres unmarked) [Compound 21]

Ki (human Keap1 Kelch; [4]): 33.8 ± 4.7 nM
Ki (human Keap1 Kelch; [5]): 34 nM
Compound: O=C(O)CC(c1ccc2c(c1)OC(F)(F)O2)c1ccc2ccc(OCC(=O)NC3CCCCCC3)cc2c1 (centres unmarked) [Compound 22]
